{"source": "patent US5874455A", "about": "“Method for treatment of cataract with radical scavenger” (priority 1993, dated 1999)", "key": {"[1]": {"tested_on": "Diamide-Treatment Mice Lenses", "experiment": "GSH content in diamide-treated mice lenses", "type": "cell-based, mouse (ddY)", "conditions": "for GSH content: 1 mM diamide", "procedure": "Male ddY mice, 6 weeks old, were killed by decapitation, and the globes were excised. The lenses were removed by a posterior approach and then transferred on a nylon net to an petri containing D-MEM medium (low glucose). The lenses were incubated at 37 ° C. for […] and clear transparent lenses were collected to be used for following experiments. […] Those were transferred to an incubation test tube containing 3 ml of isotonic HEPES buffer (pH 7.4) containing 5.5 mM glucose with 1 mM DDC or GE (glutathione isopropyl ester). The diamide treated and non-treated controls were treated by the 5 hr--incubation without the above agents. The wet weight of these treated lenses were determined.\nThe treated lenses were homogenized with 0.5 ml of purified water by Teflon homogenizer. GSH in the homogenate was determined by the method of Beutler using DTNB and the HPLC method followed.\nFifty microliter of the lens homogenate were added into 100 μl of acetonitrile containing 100 μg of sodium pantothenate (internal standard) and centrifuged at 12,000 rpm for 10 min. The supernatant solution (10 μl) was injected into a HPLC apparatus, Shimadzu LC-10AD equipped with a column oven, CTO-6A and the chromatography were performed under the conditions: a column of Supersphere 100RP-18 (particle size: 4 μm, column size: 4.0×250 mm), mobile phase of 5% methanol containing 1.0% TFA, flow rate of 1 ml/min, and column temperature at 35° C."}, "[2]": {"biological_target": "Aldose Reductase from Rat Crystalline Lens (Rattus norvegicus, UniProt P07943)", "experiment": "biochemical", "type": "biochemical", "procedure": "Aldose reductase was prepared from rat lenses in the following manner. Lenses (20 to 30) were homogenized in 20 volumes of 5 mM sodium phosphate buffer (pH 7.4), followed by centrifugation at 18,000×g for 5 min to remove insoluble materials. Solid ammonium sulfate was added to the supernatant fluid to 30% saturation. The suspension was centrifuged at 18,000×g for 10 min and the supernatant was recovered. Aldose reductase was precipitated from 30% saturated solution by the addition of solid ammonium sulfate to 75% saturation, and obtained by centrifugation. The precipitate was collected and suspended in 3.2M ammonium sulfate.\nThe enzyme solution was assayed by following the absorbance at 340 nm on a Shimadzu UV-2000 spectrophotometer equipped with a temperature-controlled cuvette chamber. The solution (0.1 ml) was added to a cuvette containing phosphate buffer (1.6 ml, pH 6.2, 0.1M final concentration) and NADPH (0.1 ml, 0.25 mM final concentration), and the cuvette was inserted into the spectrophotometer. The reaction was started by the addition of DL-glyceraldehyde (0.1 ml, 50 mM final concentration) to the cuvette, and the decrease of absorbance at 340 nm for 5 min at 25° C. was measured. […] Agents to be tested were dissolved with a minimal amount of dimethylsulfoxide and diluted to the desired concentration with purified water. The resulting solution (0.1 ml) was added to the cuvette. The reference blank (to correct for non-specific oxidation of NADPH and absorption of the agents) was prepared by using water instead of DL-glyceraldehyde solution."}, "[3]": {"tested_on": "Diamide-Treated Mice Lenses", "experiment": "Na+/K+ ratio and Ca2+ contents in diamide-treated mice lenses", "type": "cell-based, mouse (ddY)", "conditions": "for Ca2+ content / K+ content / Na+ content / Na/K ratio: diamide-treated lenses, 1 mM agent; for Ca2+ content (in words) / Na+/K+ ratio (in words): 1 Mm (so in the source), vs control levels", "procedure": "Male ddY mice, 6 weeks old, were killed by decapitation, and the […] were excised. The lenses were removed by a posterior approach and then transferred on a nylon net to a petri dish containing D-MEM medium (low glucose). The lenses were incubated at 37° C. for 19-20 hr in CO2 incubator under 5% CO2 -air and clear transparent lenses were collected to be used for following experiments. The lenses were incubated at 37° C. for 1.5 hr in 3 ml of isotonic HEPES buffer (10 mM HEPES, 136.2 mM NaCl, 5.3 mM KCl, 1.0 mM K2 HPO4, 1.7 mM CaC2 .cndot.2H2 O, 5.5 mM glucose pH 7.4) containing 1 mM diamide and the HEPES buffer without glucose. Those were transferred to an incubation test tube containing 3 ml of isotonic HEPES buffer (pH 7.4) with 1 mM DDC or GE. The diamide treated and non-treated controls were treated by the 5 hr-incubation without the above agents. The wet weight of these treated lenses were determined. Lenses were dried in vacuo at 100° C. for 8 hr, and then digested in 60% nitric acid (100 μl/lens) at 80° C. to degrade organic substances. One milliliter of purified water was added to the digests, and centrifuged at 3000×g for 10 min. Two tenth ml of the supernatant was mixed with 2 ml of purified water, and was used for measurement of Na^+ and K^+. One tenth milliliter of 100 μg/ml lanthanum chloride was added to the residual supernatant and used for measurement of Ca^2+, Na^+,K^+ and Ca^2+ contents in the lenses were determined by atomic absorption spectrometer (Hitachi 180-80, Tokyo, Japan)."}, "rabbit cornea": {"tested_on": "rabbit cornea", "experiment": "In vitro transcorneal penetration of DDC from liposomes", "type": "in vitro ADME", "procedure": "Male rabbit, 2.0 kg of body weight was sacrificed by a injection of lethal dose of pentobarbital into a […] and then two eyeballs were removed from […]. The cornea was set to the cell in which donor side was filled with liposomes containing DSF and in reservoir side with 10 mM HEPES buffer (pH 7.4) containing 136 mM NaCl, 5.3 mM KCl, 1.0 mM K2 HPO4, 1.7 mM CaCl2 and 5.5 mM glucose, shown in FIG. 2. The penetration was carried out at 37° C. for 0-6 hr. The sample (50 μl) was withdrawn from reservoir side at the indicated times. DDC in the sample was determined by the HPLC method (FIG. 2)."}, "[4]": {"conditions": "pH 6.2, 25° C., DL-glyceraldehyde substrate, read-out: IC50"}}, "note": "Read-outs that look alike come from different tables or passages of the source."}
{"compound": "CCN(CC)C(=S)[S-].[Na+]", "note": "[DDC-Na, Sodium diethyldithiocarbamate]", "values": [{"measurement": "GSH content", "setting": "[1]; DTNB method, 1 mM agent", "result": 9.8, "unit": "μg/lens"}, {"measurement": "GSH content", "setting": "[1]; HPLC method, 1 mM agent", "result": 3.9, "unit": "μg/lens"}, {"measurement": "IC50", "setting": "[2]", "result": 2600, "unit": "µM"}, {"measurement": "Ca2+ content", "setting": "[3]", "result": "1.09 ± 0.33 mmol/kg of H2 O"}, {"measurement": "K+ content", "setting": "[3]", "result": "86.25 ± 4.02 mmol/kg of H2 O"}, {"measurement": "Na+ content", "setting": "[3]", "result": "36.56 ± 4.38 mmol/kg of H2 O"}, {"measurement": "Na/K ratio", "setting": "[3]", "result": "0.43 ± 0.07"}]}
{"compound": "O[C@H](CS)[C@H](O)CS", "note": "(relative stereo) [DTT]", "values": [{"measurement": "Ca2+ content (in words)", "setting": "[3]", "result": "restored completely"}, {"measurement": "Na+/K+ ratio (in words)", "setting": "[3]", "result": "restored completely"}]}
{"compound": "CO[C@@]1(NC(=O)CSCC#N)C(=O)N2C(C(=O)O)=C(CSc3nnnn3C)CS[C@@H]21", "note": "[CMZ, cefmetazole]", "values": [{"measurement": "inhibitory activity against rat lens aldose reductase (in words)", "setting": "[2]", "result": "lower inhibitory activities"}, {"measurement": "IC50", "setting": "[2]; [4]", "result": 450, "unit": "µM"}, {"measurement": "Ca2+ content (in words)", "setting": "[3]", "result": "restored completely"}, {"measurement": "Na+/K+ ratio (in words)", "setting": "[3]", "result": "restored completely"}, {"measurement": "Ca2+ content", "setting": "[3]", "result": "1.11 ± 0.36 mmol/kg of H2 O"}, {"measurement": "K+ content", "setting": "[3]", "result": "84.91 ± 10.06 mmol/kg of H2 O"}, {"measurement": "Na+ content", "setting": "[3]", "result": "40.59 ± 10.16 mmol/kg of H2 O"}, {"measurement": "Na/K ratio", "setting": "[3]", "result": "0.50 ± 0.19"}]}
{"compound": "CC(S)C(=O)NCC(=O)O", "note": "(stereo not shown) [Tiopronin]", "values": [{"measurement": "IC50", "setting": "[2]; [4]", "result": 1350, "unit": "µM"}]}
{"compound": "CC(=C(CCO)SSCC1CCCO1)N(C=O)Cc1cnc(C)nc1N", "note": "(stereo in doubt) [Frusultiamine (Alinamine F), Frusultiamine]", "values": [{"measurement": "IC50", "setting": "[2]; [4]", "result": 1000, "unit": "µM"}]}
{"compound": "CC(C)OC(=O)CNC(=O)[C@H](CS)NC(=O)CC[C@H](N)C(=O)O", "note": "[GE, Glutathione isopropyl ester]", "values": [{"measurement": "total GSH in diamide-treated lenses (in words)", "setting": "[1]; DTNB method, 1 mM agent", "result": "restored by the control GSH level"}, {"measurement": "GSH content", "setting": "[1]; DTNB method, 1 mM agent", "result": 10.3, "unit": "μg/lens"}, {"measurement": "restoring of GSH (in words)", "setting": "[1]; HPLC method", "result": "restoring of GSH"}, {"measurement": "GSH content", "setting": "[1]; HPLC method, 1 mM agent", "result": 4.0, "unit": "μg/lens"}, {"measurement": "inhibitory activity against rat lens aldose reductase (in words)", "setting": "[2]", "result": "lower inhibitory activities"}, {"measurement": "IC50", "setting": "[2]; [4]", "result": 760, "unit": "µM"}, {"measurement": "Ca2+ content (in words)", "setting": "[3]", "result": "restored completely"}, {"measurement": "Na+/K+ ratio (in words)", "setting": "[3]", "result": "restored completely"}, {"measurement": "Ca2+ content", "setting": "[3]", "result": "1.39 ± 0.30 mmol/kg of H2 O"}, {"measurement": "K+ content", "setting": "[3]", "result": "79.67 ± 8.63 mmol/kg of H2 O"}, {"measurement": "Na+ content", "setting": "[3]", "result": "51.60 ± 9.57 mmol/kg of H2 O"}, {"measurement": "Na/K ratio", "setting": "[3]", "result": "0.67 ± 0.20"}]}
{"compound": "C[C@@H]1O[C@@H](Oc2c(-c3ccc(O)c(O)c3)oc3cc(O)cc(O)c3c2=O)[C@H](O)[C@H](O)[C@H]1O", "note": "[Quercitrin]", "values": [{"measurement": "IC50", "setting": "[2]", "result": 0.26, "unit": "µM"}, {"measurement": "inhibitory activity against rat lens aldose reductase (in words)", "setting": "[2]", "result": "lower inhibitory activities"}]}
{"compound": "CCN(CC)C(=S)S", "note": "[DDC, Diethyldithiocarbamate]", "values": [{"measurement": "DDC content in the reservoir solution relative to that at pH 8.0", "setting": "rabbit cornea; pH 6.5, six hours after incubation", "result": "one third"}, {"measurement": "effect of BSA on DDC penetration (in words)", "setting": "rabbit cornea; pH 8.0, 1.75% BSA in donor solution", "result": "did not affect"}]}
{"compound": "N[C@@H](CCC(=O)N[C@@H](CS)C(=O)NCC(=O)O)C(=O)O", "note": "[Glutathione (GSH), Glutathione]", "values": [{"measurement": "IC50", "setting": "[2]; [4]", "result": 1550, "unit": "µM"}]}
{"compound": "CCN(CC)C(=S)SSC(=S)N(CC)CC", "note": "[DSF, tetraethylthiuram disulfide]", "values": [{"measurement": "inhibitory activity against rat lens aldose reductase (in words)", "setting": "[2]", "result": "lower inhibitory activities"}, {"measurement": "IC50", "setting": "[2]; [4]", "result": 120, "unit": "µM"}]}
{"compound": "O=C(O)c1cc(O)c2c3nc4ccccc4oc-3cc(=O)c2n1", "note": "[Pirenoxine (Catalin), Pirenoxine]", "values": [{"measurement": "inhibitory activity against rat lens aldose reductase (in words)", "setting": "[2]", "result": "lower inhibitory activities"}, {"measurement": "IC50", "setting": "[2]; [4]", "result": 17.5, "unit": "µM"}]}
